Data on three compounds can be found in ChEMBL document CHEMBL3124838, “Discovery of 6-aryl-azabenzimidazoles that inhibit the TBK1/IKK-ε kinases” (Bioorg Med Chem Lett, 2014).

Each structure is given as a SMILES string. pIC50: −log10 of the molar value.

Experiment [1] deals with Tyrosine-protein kinase Fyn (Homo sapiens) (UniProt P06241). The experiment can be described thus: Inhibition of human FYN assessed as residual activity at 1 uM relative to control.
Experiment [2] has as its target Serine/threonine-protein kinase PAK 4 (Homo sapiens) (UniProt O96013). Description: Inhibition of human PAK4 assessed as residual activity at 1 uM relative to control.
In experiment [3] the target is PI3K p110 beta/p85 alpha (Homo sapiens) (UniProt P27986+P42338). The experiment can be described thus: Inhibition of human PI3K p110beta/p85alpha assessed as residual activity at 1 uM relative to control. It counts as protein-complex assay.
Chain of PI3K p110 beta/p85 alpha (Homo sapiens) (P27986 2-724 limits assumed): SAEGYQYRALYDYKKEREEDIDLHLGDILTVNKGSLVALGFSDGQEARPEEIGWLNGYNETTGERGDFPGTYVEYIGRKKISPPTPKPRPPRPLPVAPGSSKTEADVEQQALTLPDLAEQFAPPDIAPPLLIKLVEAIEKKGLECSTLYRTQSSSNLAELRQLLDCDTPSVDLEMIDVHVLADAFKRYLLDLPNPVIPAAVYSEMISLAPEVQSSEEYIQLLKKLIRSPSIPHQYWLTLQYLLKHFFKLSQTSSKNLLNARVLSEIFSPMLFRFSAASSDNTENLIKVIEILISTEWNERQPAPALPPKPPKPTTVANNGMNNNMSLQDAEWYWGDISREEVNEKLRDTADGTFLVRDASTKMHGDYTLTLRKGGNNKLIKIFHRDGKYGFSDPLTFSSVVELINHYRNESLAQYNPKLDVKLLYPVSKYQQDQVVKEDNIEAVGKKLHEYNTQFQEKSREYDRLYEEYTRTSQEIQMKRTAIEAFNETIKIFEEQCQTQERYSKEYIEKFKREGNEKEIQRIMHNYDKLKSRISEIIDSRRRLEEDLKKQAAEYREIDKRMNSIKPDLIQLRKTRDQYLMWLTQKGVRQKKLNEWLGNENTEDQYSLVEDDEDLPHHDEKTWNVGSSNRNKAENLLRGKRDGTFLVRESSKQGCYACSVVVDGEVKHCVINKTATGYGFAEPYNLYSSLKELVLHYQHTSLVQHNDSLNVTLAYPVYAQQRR
Chain of PI3K p110 beta/p85 alpha (Homo sapiens) (P42338 whole entry partner): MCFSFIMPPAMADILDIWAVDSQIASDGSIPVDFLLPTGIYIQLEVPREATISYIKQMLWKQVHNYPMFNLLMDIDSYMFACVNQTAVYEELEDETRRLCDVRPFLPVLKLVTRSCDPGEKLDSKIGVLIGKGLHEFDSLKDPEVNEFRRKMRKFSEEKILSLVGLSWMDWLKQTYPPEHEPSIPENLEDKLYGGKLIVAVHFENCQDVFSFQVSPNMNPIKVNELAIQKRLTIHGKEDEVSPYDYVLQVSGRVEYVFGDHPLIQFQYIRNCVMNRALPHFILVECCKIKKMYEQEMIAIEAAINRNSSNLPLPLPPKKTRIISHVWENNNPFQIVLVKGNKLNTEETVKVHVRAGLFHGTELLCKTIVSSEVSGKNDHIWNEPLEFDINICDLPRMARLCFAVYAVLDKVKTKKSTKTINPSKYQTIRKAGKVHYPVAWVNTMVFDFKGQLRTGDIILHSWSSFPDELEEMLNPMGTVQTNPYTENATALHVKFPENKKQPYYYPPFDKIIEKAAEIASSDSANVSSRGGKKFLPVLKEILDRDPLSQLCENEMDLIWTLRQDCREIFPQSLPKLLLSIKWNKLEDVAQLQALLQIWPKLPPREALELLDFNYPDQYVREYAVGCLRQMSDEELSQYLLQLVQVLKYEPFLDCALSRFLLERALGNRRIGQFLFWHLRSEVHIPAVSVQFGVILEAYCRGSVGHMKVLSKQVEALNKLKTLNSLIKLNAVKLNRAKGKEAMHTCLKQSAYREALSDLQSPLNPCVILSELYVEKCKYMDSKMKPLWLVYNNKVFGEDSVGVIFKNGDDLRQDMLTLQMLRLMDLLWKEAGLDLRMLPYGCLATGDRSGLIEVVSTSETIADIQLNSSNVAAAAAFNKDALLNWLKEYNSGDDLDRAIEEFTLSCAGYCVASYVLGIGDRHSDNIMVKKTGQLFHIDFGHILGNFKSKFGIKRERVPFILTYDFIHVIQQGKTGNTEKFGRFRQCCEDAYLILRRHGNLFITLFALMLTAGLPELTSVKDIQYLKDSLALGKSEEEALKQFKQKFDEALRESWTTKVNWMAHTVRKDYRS
Experiment [4] has as its target Macrophage colony-stimulating factor 1 receptor (Homo sapiens) (UniProt P07333). Description: Inhibition of human FMS assessed as residual activity at 1 uM relative to control.
For experiment [5], the target named is Tyrosine-protein kinase ABL2 (Homo sapiens) (UniProt P42684). The experiment can be described thus: Inhibition of human ARG assessed as residual activity at 1 uM relative to control.
The target of experiment [6] is Hepatocyte growth factor receptor (Homo sapiens) (UniProt P08581). The experiment can be described thus: Inhibition of human MET assessed as residual activity at 1 uM relative to control.
Chain of Hepatocyte growth factor receptor (Homo sapiens) (P08581 whole entry): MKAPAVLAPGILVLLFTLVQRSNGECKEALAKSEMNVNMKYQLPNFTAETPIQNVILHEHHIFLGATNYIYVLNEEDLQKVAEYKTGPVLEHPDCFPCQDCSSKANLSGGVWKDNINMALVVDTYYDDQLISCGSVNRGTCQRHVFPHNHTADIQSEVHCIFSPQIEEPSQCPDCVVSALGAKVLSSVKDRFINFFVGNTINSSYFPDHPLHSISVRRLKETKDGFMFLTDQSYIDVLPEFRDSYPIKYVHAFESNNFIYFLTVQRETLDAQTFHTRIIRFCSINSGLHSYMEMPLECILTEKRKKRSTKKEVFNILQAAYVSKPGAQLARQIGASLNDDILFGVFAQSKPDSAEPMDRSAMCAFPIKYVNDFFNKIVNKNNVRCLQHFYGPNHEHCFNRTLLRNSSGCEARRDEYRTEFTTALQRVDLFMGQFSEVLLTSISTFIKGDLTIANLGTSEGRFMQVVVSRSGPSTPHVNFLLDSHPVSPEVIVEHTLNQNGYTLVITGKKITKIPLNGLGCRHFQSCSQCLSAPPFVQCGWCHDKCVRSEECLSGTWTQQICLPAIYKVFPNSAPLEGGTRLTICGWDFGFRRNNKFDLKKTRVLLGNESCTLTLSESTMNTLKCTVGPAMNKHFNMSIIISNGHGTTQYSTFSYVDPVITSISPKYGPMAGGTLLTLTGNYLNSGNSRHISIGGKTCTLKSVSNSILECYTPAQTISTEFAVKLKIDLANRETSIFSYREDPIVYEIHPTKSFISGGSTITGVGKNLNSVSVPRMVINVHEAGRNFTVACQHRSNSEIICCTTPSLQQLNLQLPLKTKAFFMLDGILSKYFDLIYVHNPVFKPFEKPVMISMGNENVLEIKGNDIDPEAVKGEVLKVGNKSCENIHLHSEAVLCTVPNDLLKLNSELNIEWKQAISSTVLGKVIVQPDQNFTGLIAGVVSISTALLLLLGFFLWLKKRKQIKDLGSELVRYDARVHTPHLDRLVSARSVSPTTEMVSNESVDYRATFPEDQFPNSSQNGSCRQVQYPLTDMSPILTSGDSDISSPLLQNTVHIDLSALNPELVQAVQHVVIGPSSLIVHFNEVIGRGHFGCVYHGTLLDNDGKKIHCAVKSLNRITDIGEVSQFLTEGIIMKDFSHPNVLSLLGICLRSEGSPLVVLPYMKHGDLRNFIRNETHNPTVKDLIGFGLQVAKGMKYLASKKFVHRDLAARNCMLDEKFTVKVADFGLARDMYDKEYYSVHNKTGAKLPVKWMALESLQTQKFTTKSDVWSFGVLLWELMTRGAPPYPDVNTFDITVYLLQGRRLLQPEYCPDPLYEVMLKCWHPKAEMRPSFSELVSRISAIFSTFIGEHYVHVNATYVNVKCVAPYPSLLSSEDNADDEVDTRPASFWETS
Experiment [7] concerns the target Epidermal growth factor receptor (Homo sapiens) (UniProt P00533). Description: Inhibition of human EGFR assessed as residual activity at 1 uM relative to control.
In experiment [8] the target is T1, Dual specificity tyrosine-phosphorylation-regulated kinase 2 (Homo sapiens) (UniProt Q92630).
T1 sequence (whole entry): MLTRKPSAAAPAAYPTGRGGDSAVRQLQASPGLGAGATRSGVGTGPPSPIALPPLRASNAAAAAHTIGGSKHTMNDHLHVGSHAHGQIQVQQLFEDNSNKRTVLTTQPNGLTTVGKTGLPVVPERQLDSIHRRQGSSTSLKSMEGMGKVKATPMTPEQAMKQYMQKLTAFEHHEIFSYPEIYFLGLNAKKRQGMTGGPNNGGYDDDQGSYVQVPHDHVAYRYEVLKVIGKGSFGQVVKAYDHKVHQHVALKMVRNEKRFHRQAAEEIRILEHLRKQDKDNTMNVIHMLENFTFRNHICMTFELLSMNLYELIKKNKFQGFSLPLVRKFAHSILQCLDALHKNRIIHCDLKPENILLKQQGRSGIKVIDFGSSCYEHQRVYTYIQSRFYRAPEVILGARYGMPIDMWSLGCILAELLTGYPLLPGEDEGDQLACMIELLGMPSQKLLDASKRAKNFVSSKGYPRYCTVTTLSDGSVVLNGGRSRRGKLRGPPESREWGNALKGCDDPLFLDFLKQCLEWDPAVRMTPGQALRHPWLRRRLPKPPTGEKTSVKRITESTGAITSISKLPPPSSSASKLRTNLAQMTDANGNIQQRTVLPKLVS
Description: Inhibition of human DYRK2 assessed as residual activity at 1 uM relative to control.

For experiment [9], the target named is Serine/threonine-protein kinase PLK1 (Homo sapiens) (UniProt P53350). Description: Inhibition of human PLK1 assessed as residual activity at 1 uM relative to control.
Chain of Serine/threonine-protein kinase PLK1 (Homo sapiens) (P53350 whole entry): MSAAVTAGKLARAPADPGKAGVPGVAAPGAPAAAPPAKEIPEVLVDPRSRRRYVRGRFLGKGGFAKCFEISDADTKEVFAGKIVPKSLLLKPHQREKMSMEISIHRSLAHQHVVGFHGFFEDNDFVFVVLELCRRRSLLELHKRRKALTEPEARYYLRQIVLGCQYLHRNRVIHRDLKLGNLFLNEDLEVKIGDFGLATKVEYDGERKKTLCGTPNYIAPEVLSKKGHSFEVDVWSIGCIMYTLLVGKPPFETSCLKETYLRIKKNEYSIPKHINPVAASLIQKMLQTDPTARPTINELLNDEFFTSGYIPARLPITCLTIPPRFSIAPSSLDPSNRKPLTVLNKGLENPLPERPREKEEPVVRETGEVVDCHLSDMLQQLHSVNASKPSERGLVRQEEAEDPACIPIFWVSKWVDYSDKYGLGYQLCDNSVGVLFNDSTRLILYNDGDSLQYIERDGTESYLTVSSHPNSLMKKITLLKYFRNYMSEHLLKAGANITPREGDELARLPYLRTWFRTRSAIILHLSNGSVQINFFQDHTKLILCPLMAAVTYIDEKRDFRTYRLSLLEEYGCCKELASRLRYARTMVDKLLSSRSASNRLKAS
The target in experiment [10] is T2, Activin receptor type-1B (Homo sapiens) (UniProt P36896).
T2 sequence (whole entry): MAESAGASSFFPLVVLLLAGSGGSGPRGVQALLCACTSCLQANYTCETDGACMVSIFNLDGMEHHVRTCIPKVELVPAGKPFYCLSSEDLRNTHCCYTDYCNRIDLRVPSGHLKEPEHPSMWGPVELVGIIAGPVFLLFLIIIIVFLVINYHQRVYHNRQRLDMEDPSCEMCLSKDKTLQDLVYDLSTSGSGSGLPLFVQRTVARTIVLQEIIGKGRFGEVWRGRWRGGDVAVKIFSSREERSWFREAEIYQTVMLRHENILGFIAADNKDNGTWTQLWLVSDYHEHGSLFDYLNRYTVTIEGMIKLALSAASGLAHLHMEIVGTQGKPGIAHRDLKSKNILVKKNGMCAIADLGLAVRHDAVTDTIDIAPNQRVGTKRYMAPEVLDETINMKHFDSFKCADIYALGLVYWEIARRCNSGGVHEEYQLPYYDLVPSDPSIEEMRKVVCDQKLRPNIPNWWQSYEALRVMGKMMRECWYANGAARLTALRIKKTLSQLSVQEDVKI
Description: Inhibition of human ALK4 assessed as residual activity at 1 uM relative to control.

Experiment [11] concerns the target T3, Serine/threonine-protein kinase TBK1 (Homo sapiens, UniProt Q9UHD2).
T3 sequence (Q9UHD2 whole entry): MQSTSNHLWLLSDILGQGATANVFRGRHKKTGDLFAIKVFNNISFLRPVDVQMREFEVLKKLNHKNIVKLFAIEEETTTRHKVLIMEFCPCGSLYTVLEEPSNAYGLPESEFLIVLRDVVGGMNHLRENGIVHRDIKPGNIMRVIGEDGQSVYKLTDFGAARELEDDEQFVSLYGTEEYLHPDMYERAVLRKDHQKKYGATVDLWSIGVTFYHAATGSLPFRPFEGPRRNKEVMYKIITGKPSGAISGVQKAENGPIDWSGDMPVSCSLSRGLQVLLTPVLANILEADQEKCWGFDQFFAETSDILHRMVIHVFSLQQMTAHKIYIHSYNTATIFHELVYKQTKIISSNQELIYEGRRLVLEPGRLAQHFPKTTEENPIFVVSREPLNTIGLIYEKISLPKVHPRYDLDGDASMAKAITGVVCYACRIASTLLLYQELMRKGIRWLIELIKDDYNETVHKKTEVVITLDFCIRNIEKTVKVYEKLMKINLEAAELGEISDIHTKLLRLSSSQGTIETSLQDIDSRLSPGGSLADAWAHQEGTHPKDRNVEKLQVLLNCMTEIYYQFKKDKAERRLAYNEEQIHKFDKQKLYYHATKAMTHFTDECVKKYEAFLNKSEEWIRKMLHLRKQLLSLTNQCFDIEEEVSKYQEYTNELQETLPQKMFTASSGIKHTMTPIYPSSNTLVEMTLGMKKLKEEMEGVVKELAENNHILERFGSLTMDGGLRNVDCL
The experiment can be described thus: Inhibition of recombinant full-length TBK1 (unknown origin) using CK1tide as substrate by microfluidic mobility shift assay.

Chain of Serine/threonine-protein kinase PAK 4 (Homo sapiens) (O96013 whole entry, looked up): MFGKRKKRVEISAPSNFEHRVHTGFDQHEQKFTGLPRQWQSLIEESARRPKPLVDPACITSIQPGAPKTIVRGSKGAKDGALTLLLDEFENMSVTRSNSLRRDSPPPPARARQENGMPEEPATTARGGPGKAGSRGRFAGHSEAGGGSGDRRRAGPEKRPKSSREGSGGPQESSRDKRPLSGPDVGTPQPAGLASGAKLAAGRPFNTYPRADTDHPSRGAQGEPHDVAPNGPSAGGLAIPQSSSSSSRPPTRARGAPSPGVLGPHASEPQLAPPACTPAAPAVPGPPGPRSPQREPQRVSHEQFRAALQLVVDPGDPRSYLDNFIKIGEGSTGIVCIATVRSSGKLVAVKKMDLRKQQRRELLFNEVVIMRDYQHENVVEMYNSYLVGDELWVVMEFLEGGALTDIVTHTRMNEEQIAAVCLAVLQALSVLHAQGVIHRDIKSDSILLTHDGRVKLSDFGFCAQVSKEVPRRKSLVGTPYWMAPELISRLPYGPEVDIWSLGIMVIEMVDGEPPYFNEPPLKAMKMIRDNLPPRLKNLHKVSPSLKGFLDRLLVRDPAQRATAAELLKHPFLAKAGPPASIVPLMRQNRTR
Chain of Tyrosine-protein kinase Fyn (Homo sapiens) (P06241 2-537 limits assumed): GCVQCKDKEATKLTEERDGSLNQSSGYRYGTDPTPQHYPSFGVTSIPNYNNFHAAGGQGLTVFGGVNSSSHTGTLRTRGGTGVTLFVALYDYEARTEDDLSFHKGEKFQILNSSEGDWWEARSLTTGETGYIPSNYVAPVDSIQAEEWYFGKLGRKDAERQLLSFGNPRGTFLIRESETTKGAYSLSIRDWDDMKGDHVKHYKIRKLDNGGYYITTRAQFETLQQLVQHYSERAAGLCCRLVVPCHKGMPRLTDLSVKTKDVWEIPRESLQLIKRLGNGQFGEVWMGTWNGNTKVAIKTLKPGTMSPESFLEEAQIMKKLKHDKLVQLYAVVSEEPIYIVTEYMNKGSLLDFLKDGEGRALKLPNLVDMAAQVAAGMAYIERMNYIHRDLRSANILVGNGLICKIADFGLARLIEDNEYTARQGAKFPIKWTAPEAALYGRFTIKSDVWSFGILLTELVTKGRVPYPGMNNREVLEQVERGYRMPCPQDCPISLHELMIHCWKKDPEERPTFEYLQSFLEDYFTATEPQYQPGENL

On to `COc1ccc(-c2nc3cc(-c4csc(C(=O)NCC(C)(C)C)c4)cnc3[nH]2)cc1`, for which the Activity in experiment [1] was 67%; in experiment [2], 87%; in experiment [3] it was 89%; in [4] it was 70%; in [5], 60%; in [6], 114%. The Activity in experiment [7] was determined as 97%; in experiment [8], 30%; in experiment [9], 110%; in [10] it was 85%. In addition, in experiment [11], the negative-log IC50 (pIC50) is 7.08.
For `COc1ccc(-c2nc3cc(-c4csc(C(=O)NCCC(C)C)c4)cnc3[nH]2)cc1`, the Activity in experiment [1] turned out to be 33%; in experiment [2], 83%; in [3], 92%; in experiment [4] it was 70%; in experiment [5] it was 52%; in [6], 111%. In addition, the Activity worked out at 89% in [7], 11% in [8], 112% in experiment [9] and 85% in experiment [10]. In experiment [11], the pIC50 is 6.84.
Take `COc1ccc(-c2nc3cc(-c4csc(C(=O)NCC(C)C)c4)cnc3[nH]2)cc1`: the Activity in experiment [1] amounted to 34%; in experiment [2], 89%; in experiment [3] it was 89%; in [4] it was 63%; in experiment [5], 38%; in experiment [6] it was 107%. For the same compound, the Activity in experiment [7] came out at 102%; in [8] it was 20%; in experiment [9], 105%; in experiment [10], 96%. Moreover, the negative logarithm of the IC50 (pIC50) in experiment [11] was 7.11.

A word on the pIC50: it is the negative decadic logarithm of the IC50, by convention in mol/L.
